Test results reported in publication PMC9043233, “Newly synthesised oxime and lactone derivatives from Dipterocarpus alatus dipterocarpol as anti-diabetic inhibitors: experimental bioassay-based evidence and theoretical computation-based prediction” (RSC Advances, 2021).
“Also recorded” adds a separate entry of the source.

System: not given

SMILES | melting point [°C]
CC1(C)C2CC[C@]3(C)C(CCC4[C@@H]([C@@]5(C)CCC(=O)O5)CC[C@]43C)[C@@]2(C)CC[C@@H]1O (stereo partly drawn) [Compound 5, 3β-hydroxy-17-[(5α-methyl)-3,4H-furane-2-one]-25,26,27-tris-nor-dammarane] | 195 to 196
CC1(C)C(=O)CC[C@@]2(C)C1CC[C@]1(C)C2CCC2[C@@H]([C@@]3(C)CCC(=O)O3)CC[C@]21C (stereo partly drawn) [Compound 4, 17-[(5α-methyl)-3,4H-furane-2-one]-25,26,27-tris-nor-dammar-3-one] | 118.4 to 120.3
CCCCC(=O)O[C@H]1CC[C@@]2(C)C(CC[C@]3(C)C2CCC2[C@@H]([C@@]4(C)CCC(=O)O4)CC[C@]23C)C1(C)C (stereo partly drawn) [Compound 6b, 17-[(5α-methyl)-3,4H-furane-2-one]-3β-(O-pentanoyl)-25,26,27-tris-nor-dammarane] | 134 to 135
CC1(C)C2CC[C@]3(C)C(CCC4[C@@H]([C@@]5(C)CCC(=O)O5)CC[C@]43C)[C@@]2(C)CC[C@@H]1OC(=O)/C=C/c1ccccc1 (stereo partly drawn) [Compound 6e, 17-[(5α-methyl)-3,4H-furane-2-one]-3β-(O-cinnamoyl)-25,26,27-tris-nor-dammarane] | 236 to 238
CC(C)C(=O)O[C@H]1CC[C@@]2(C)C(CC[C@]3(C)C2CCC2[C@@H]([C@@]4(C)CCC(=O)O4)CC[C@]23C)C1(C)C (stereo partly drawn) [Compound 6c, 17-[(5α-methyl)-3,4H-furane-2-one]-3β-(O-isobutyryl)-25,26,27-tris-nor-dammarane] | 206 to 207
CC1(C)C2CC[C@]3(C)C(CCC4[C@@H]([C@@]5(C)CCC(=O)O5)CC[C@]43C)[C@@]2(C)CC[C@@H]1OC(=O)c1ccccc1O (stereo partly drawn) [Compound 6d, 17-[(5α-methyl)-3,4H-furane-2-one]-3β-(O-salycyloyl)-25,26,27-tris-nor-dammarane] | 186 to 187
CC(=O)O[C@H]1CC[C@@]2(C)C(CC[C@]3(C)C2CCC2[C@@H]([C@@]4(C)CCC(=O)O4)CC[C@]23C)C1(C)C (stereo partly drawn) [Compound 6a, 17-[(5α-methyl)-3,4H-furane-2-one]-3β-(O-acetyl)-25,26,27-tris-nor-dammarane] | 248 to 249

Target: α-glucosidase (Saccharomyces cerevisiae, UniProt P53341)
Format: biochemical
Procedure: The bioassay was carried out on 96 well-plates (200 μL per well). A solution of the test samples in 10% dimethyl sulfoxide (DMSO) was diluted further to concentrations of 1024, 256, 64, 16, 4, and 1 μg mL^−1. Each concentration of the test samples (10 μL) was incubated at 37 °C with phosphate buffer 100 mM (pH 6.8, 40 μL), α-glucosidase 0.4 U mL^−1 (25 μL), and p-nitrophenyl α-D-glucopyranoside 2.5 mM (25 μL). The reaction was stopped after 30 min by adding 100 μL of 0.1 M Na2CO3. The enzyme activities were measured based on the absorbance at λmax 405 nm of the test samples. […] Percentage inhibition was calculated as follows:[38]α-Glucosidase inhibition (%) = [Abs(control) − Abs(sample)]/Abs(control) × 100%

α-glucosidase, sequence (P53341 whole entry): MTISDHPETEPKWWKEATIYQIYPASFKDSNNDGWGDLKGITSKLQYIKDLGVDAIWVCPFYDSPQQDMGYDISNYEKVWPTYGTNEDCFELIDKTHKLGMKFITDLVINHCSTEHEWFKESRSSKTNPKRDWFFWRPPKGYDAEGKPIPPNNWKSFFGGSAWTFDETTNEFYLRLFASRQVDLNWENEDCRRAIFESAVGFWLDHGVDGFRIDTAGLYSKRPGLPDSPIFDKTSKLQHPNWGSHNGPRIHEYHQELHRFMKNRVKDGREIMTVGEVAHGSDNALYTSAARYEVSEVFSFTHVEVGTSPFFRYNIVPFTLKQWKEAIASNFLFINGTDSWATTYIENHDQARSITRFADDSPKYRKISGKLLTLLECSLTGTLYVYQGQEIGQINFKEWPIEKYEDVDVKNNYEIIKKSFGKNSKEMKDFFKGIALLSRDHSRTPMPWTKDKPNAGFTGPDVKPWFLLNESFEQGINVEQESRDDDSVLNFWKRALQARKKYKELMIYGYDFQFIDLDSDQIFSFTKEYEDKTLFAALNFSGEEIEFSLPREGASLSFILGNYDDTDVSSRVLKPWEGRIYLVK

SMILES | α-glucosidase inhibition, result in words
CC(C)=CCCC(C)(O)C1CCC2(C)C1CCC1C3(C)CCC(=NOC(=O)c4ccccc4I)C(C)(C)C3CCC12C [Compound 3h, 20(S)-hydroxydammar-24-ene-3-oximyl-[2-iodobenzoate]] | loss of their activity; also recorded: no inhibition activity; also recorded: unnoticeable inhibition
CC1(C)C(=O)CC[C@@]2(C)C1CC[C@]1(C)C2CCC2[C@@H]([C@@]3(C)CCC(=O)O3)CC[C@]21C (stereo partly drawn) [Compound 4, 17-[(5α-methyl)-3,4H-furane-2-one]-25,26,27-tris-nor-dammar-3-one] | no inhibition activity; also recorded: unnoticeable inhibition
CC(C)=CCCC(C)(O)C1CCC2(C)C1CCC1C3(C)CCC(=NOC(=O)c4cc(I)cc(I)c4O)C(C)(C)C3CCC12C [Compound 3d, 20(S)-hydroxydammar-24-ene-3-oximyl-[2-hydroxy-3,5-diiodobenzoate]] | loss of their activity; also recorded: no inhibition activity
CC(C)=CCCC(C)(O)C1CCC2(C)C1CCC1C3(C)CCC(=NOC(=O)c4cnc(C)cn4)C(C)(C)C3CCC12C [Compound 3a, 20(S)-hydroxy dammar-24-ene-3-oximyl-[5-methyl-3,6-diazine-1-carboxylate]] | no inhibition activity; also recorded: unnoticeable inhibition
CC(C)=CCCC(C)(O)C1CCC2(C)C1CCC1C3(C)CCC(=NOC(=O)C(C)C)C(C)(C)C3CCC12C [Compound 3m, 20(S)-hydroxydammar-24-ene-3-oximyl isobutyrate] | no inhibition activity; also recorded: unnoticeable inhibition
CC(C)=CCC[C@](C)(O)[C@H]1CC[C@]2(C)[C@@H]1CC[C@@H]1[C@@]3(C)CCC(=O)C(C)(C)[C@@H]3CC[C@]12C [Compound 1, dipterocarpol] | weak activity
CC(C)=CCCC(C)(O)C1CCC2(C)C1CCC1C3(C)CCC(=NOC(=O)c4ccc(F)cc4)C(C)(C)C3CCC12C [Compound 3g, 20(S)-hydroxydammar-24-ene-3-oximyl-[4-fluorobenzoate]] | no α-glucosidase inhibition; also recorded: no inhibition activity; also recorded: unnoticeable inhibition
